# Data: patent US20260325504A1, “Genetically Engineered Human Pituitary Corticotroph Tumor Organoids Exhibit Divergent Responses to Selective Glucocorticoid Receptor Modulators” (Corcept Therapeutics Incorporated, priority 2022, published 2026)
# Entries after “also recorded” stand apart in the source; their conditions may differ.
# Key:
# [1] = tested on: patients with Cushing's syndrome; details: cited from earlier work; for tumor regression / tumor growth: CD patients, pituitary macroadenomas/corticotroph tumors; for ACTH levels in patients / cortisol levels in patients: patients with Cushing's syndrome/CD
# [2] = tested on: iPSC^USP48MV organoids; assay: Spectral flow cytometry, Zombie positive cells (cell death), iPSCUSP48MV organoids; assay type: cell-based, human; details: 48 h, FIGS. 8D
# Description: Sonic Hedgehog (SHH) was withdrawn from the organoid growth media 16 hours prior to treatment. The experimental treatment groups included: vehicle (Veh), mifepristone (500 nM, Selleckchem S2606), GANT61 (5 μM, Stemcell Technologies 73692), ketoconazole (Keto, 10 μM, Selleckchem S1353), pasireotide (Pas, 100 nM, Target Mol TP2207-SB001), octreotide (Oct, 100 nM, Selleckchem P1017), mifepristone plus GANT61, mifepristone plus Keto, mifepristone plus Pas, relacorilant (500 nM, Corcept Therapeutics CORT125134), relacorilant plus Pas, relacorilant plus Oct, or dexamethasone (Dexa, 100 nM, SIGMA S4902). In the combination treatments, cultures were pretreated with the GANT61, Keto, Pas or Oct for 2 hours prior to treatment with mifepristone or Rela. PitNET tissue derived organoids hPITO36, hPITO37, hPITO38, hPITO39, and hPITO40 were treated with the following experimental conditions: Vehicle (1), pasireotide (2), relacorilant (3), relacorilant & pasireotide (4), mifepristone (5), mifepristone & pasireotide (6). The IC50 values used for each hPITO line for each drug were determined based on dose responses (FIG. 12). […]
# The multicolor flow cytometry antibody panel was designed using the Cytek® Full Spectrum Viewer online tool to calculate the similarity index. […] Data was acquired using the Cytek® Aurora, analyzed using Cytobank Premium software (Beckman Coulter).
# [3] = tested on: SSTR5; assay: Differential expression of SSTR5 (qRT-PCR) in iPSC generated pituitary organoids; assay type: cell-based, human; details: for expression of SSTR5: 500 nM, vs vehicle; for SSTR5 induction relative to SSTR2: PitNET organoids, summary
# Description: Sonic Hedgehog (SHH) was withdrawn from the organoid growth media 16 hours prior to treatment. The experimental treatment groups included: vehicle (Veh), mifepristone (500 nM, Selleckchem S2606), GANT61 (5 μM, Stemcell Technologies 73692), ketoconazole (Keto, 10 μM, Selleckchem S1353), pasireotide (Pas, 100 nM, Target Mol TP2207-SB001), octreotide (Oct, 100 nM, Selleckchem P1017), mifepristone plus GANT61, mifepristone plus Keto, mifepristone plus Pas, relacorilant (500 nM, Corcept Therapeutics CORT125134), relacorilant plus Pas, relacorilant plus Oct, or dexamethasone (Dexa, 100 nM, SIGMA S4902). In the combination treatments, cultures were pretreated with the GANT61, Keto, Pas or Oct for 2 hours prior to treatment with mifepristone or Rela. PitNET tissue derived organoids hPITO36, hPITO37, hPITO38, hPITO39, and hPITO40 were treated with the following experimental conditions: Vehicle (1), pasireotide (2), relacorilant (3), relacorilant & pasireotide (4), mifepristone (5), mifepristone & pasireotide (6). The IC50 values used for each hPITO line for each drug were determined based on dose responses (FIG. 12). All organoid cultures were treated for 48 hours prior to analysis.
# RNA was extracted from PitNET tissue or iPSC generated organoids using TRI Reagent® (Molecular Research Center Inc TR118) and the High Capacity cDNA Reverse Transcription Kit (Applied Biosystems, Foster City, CA) was used for cDNA synthesis of RNA following the recommended protocol. For each sample, 60 ng RNA was reverse transcribed to yield approximately […] total cDNA that was then used for the qRT-PCR. Pre-designed real-time polymerase chain reaction assays were purchased for the following genes: TPit (Thermo Fisher Scientific 4331182 Hs00193027), SF1 (Thermo Fisher Scientific 4331182 Hs00610436), SSTR2 (Thermo Fisher Scientific 4331182 Hs00265624_s1), SSTR5 (Thermo Fisher Scientific 4331182 Hs00990407_s1), POMC (Thermo Fisher Scientific 4331182 Hs01596743_ml), hPRT (Thermo Fisher Scientific 4331182 Hs02800695_ml), and FKBP5 (Thermo Fisher Scientific 4331182 Hs01561006_m1). Polymerase chain reaction amplifications were performed in a total volume of 20 μL containing 20× TaqMan Expression Assay primers, 2× TaqMan Universal Master Mix (Applied Biosystems, TaqMan® Gene Expression Systems), and cDNA template. Each polymerase chain reaction amplification was performed in triplicate wells in a StepOne Real-Time PCR System (Applied Biosystems) by using the following conditions: 500C 2 minutes, 95° C. 10 minutes, 95° C. 15 seconds (denature) and 60° C. 1 minute (anneal/extend) for 40 cycles. Fold change was calculated as the following: (Ct-Ct high)=n target, 2ntarget/2nHPRT=fold change where Ct=threshold cycle. The results were expressed as average fold change in or differential gene expression relative to control, with HPRT used as an internal control according to Livak and Schmittgen.
# [4] = tested on: iPSC^USP48MV organoids; assay: Nuclear morphometric analysis (nuclear irregularity index), iPSCUSP48MV organoids; assay type: cell-based, human; details: 500 nM, 48 h
# Description: (§1) Nuclear Morphometric Analysis (NMA) using treated organoids was performed based on a published protocol that measures cell viability based on the changes in nuclear morphology of the cells using nuclear stain Hoechst or DAPI [31]. Images of organoid nuclei were analyzed using the ImageJ Nuclear Irregularity Index (NII) plugin for key parameters that included cell area, radius ratio, area box, aspect, and roundness. Using the published spreadsheet template, the NII of each cell was calculated with the following formula: NII=Aspect−Area Box+Radius Ratio+Roundness. The area vs NII of vehicle-treated cells were plotted as a scatter plot using the template and considered as the normal cell nuclei. […] The percentage of cells in each NII classification category were calculated and plotted as a histogram using GraphPad Prism.
# (§2) Sonic Hedgehog (SHH) was withdrawn from the organoid growth media 16 hours prior to treatment. […] The IC50 values used for each hPITO line for each drug were determined based on dose responses (FIG. 12). […]
# [5] = tested on: iPSC^ctrl organoids; assay: Nuclear morphometric analysis (nuclear irregularity index), iPSCctrl organoids; assay type: cell-based, human; details: 500 nM, 48 h
# Description: as §1, §2
Structure (SMILES),tumor regression / tumor growth [1],hyperglycemia secondary to hypercortisolism ([1]; patients with CD),ACTH levels in patients [1],cortisol levels in patients [1],side effects ([1]; patients),cell death (Zombie positive cells) [2],"expression of SSTR5 ([3]; iPSC organoids, 48 h)","differential expression of SSTR5 ([3]; iPSCctrl organoids, compound alone, 48 h, FIG. 5C, D)",apoptotic cells by nuclear irregularity index (NII) [4],apoptotic cells by nuclear irregularity index (NII) [5],"tumor regression ([1]; macroadenomas, treated for three months, imaging of the pituitary gland)","effects of excess cortisol on hypertension and insulin resistance ([1]; phase 2 study, patients with Cushing's syndrome)",SSTR5 induction relative to SSTR2 [3],SSTR5 induction relative to SSTR2 ([3]; listed as Relacorilant),"induction in SSTR5 expression, relacorilant compared to mifepristone ([3]; iPSC organoids, 500 nM each, 48 h, FIG. 5B)"
"CC#C[C@]1(O)CC[C@H]2[C@@H]3CCC4=CC(=O)CCC4=C3[C@@H](c3ccc(N(C)C)cc3)C[C@@]21C [mifepristone, 11β-(4-dimethylaminophenyl)-17ß-hydroxy-17α-(1-propynyl)-estra-4,9-dien-3-one]",not been observed; also recorded: without tumor growth,significantly improves hyperglycemia,increases ACTH; also recorded: raises ACTH (and thus cortisol) levels,concomitant increase in cortisol secretion; also recorded: raises ACTH (and thus cortisol) levels,significant side effects in some patients; also recorded: endometrial thickening and vaginal bleeding,not observed,significant induction; also recorded: significantly induced the expression,significantly induced,not observed; also recorded: induces apoptosis in neither the tumor organoid iPSC^USP48MV nor the control organoid iPSC^ctrl,not observed; also recorded: induces apoptosis in neither the tumor organoid iPSC^USP48MV nor the control organoid iPSC^ctrl,–,–,–,–,–
"Cn1cc(S(=O)(=O)N2CCC3=Cc4c(cnn4-c4ccc(F)cc4)C[C@]3(C(=O)c3cc(C(F)(F)F)ccn3)C2)cn1 [relacorilant, (R)-(1-(4-fluorophenyl)-6-((1-methyl-1H-pyrazol-4-yl)sulfonyl)-4,4a,5,6,7,8-hexahydro-1H-pyrazolo[3,4-g]isoquinolin-4a-yl) (4-(trifluoromethyl)pyridin-2-yl) methanone]",induce tumor regression in some CD patients,–,did not significantly raise ACTH or cortisol levels,did not significantly raise ACTH or cortisol levels,–,significant increase in Zombie positive cells,significant induction; also recorded: significantly induced the expression,–,significant expression pattern of nuclear morphology consistent with increased apoptotic cells; also recorded: consistent with increased apoptosis cells,not observed,tumor regression in two patients,reversed the effects of excess cortisol on hypertension and insulin resistance,predominantly induced SSTR5 expression; also recorded: greater induction of SSTR5 expression as compared to SSTR2,predominantly induces SSTR5,induced greater SSTR5 expression
